Laboratory results as given in patent publication US12077503B2, “Substituted cyclic amides and their use as herbicides” (FMC CORPORATION, priority 2015, dated 2024).

Key:
Assay type in all cases: in vivo
[1] = tested on: barnyardgrass (Echinochloa crus-galli); test: Test G Post-Emergence Protocol; details: Echinochloa crus-galli, post-emergence, 312 h, read-out: Barnyardgrass damage rating; for pest or weed control at 15.625 g/ha: 15.625 g ai/ha, evaluated after 13 days (100=total damage to plant; 0=no damage to plant); for pest or weed control at 62.5 g/ha: 62.5 g ai/ha; for pest or weed control at 62.5 g/ha / pest or weed control at 250 g/ha: evaluated after 13 days, 100=total damage to plant, 0=no damage to plant; for pest or weed control at 250 g/ha: 250 g ai/ha
In short: (§1)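 Sow in soil; grow 8 d (24/16 °C, 14 h light, 65% humidity); spray 15.625/62.5/250 g/ha in acetone:water 50:50 + 0.5% Tween 20; grow on, water twice daily; score damage 0–100 at 13 d.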

[2] = tested on: giant foxtail (Setaria faberi); test: Test G Post-Emergence Protocol; details: Setaria faberi, post-emergence, 312 h, read-out: Foxtail, Giant damage rating; for pest or weed control at 15.625 g/ha: 15.625 g ai/ha, evaluated after 13 days (100=total damage to plant; 0=no damage to plant); for pest or weed control at 62.5 g/ha: 62.5 g ai/ha; for pest or weed control at 62.5 g/ha / pest or weed control at 250 g/ha: evaluated after 13 days, 100=total damage to plant, 0=no damage to plant; for pest or weed control at 250 g/ha: 250 g ai/ha
In short: as §1

[3] = tested on: ivy-leaved morning glory (Ipomoea hederacea); test: Test G Post-Emergence Protocol; details: Ipomoea, post-emergence, 312 h, read-out: Morningglory, Ivy-leaved damage rating; for pest or weed control at 15.625 g/ha: 15.625 g ai/ha, evaluated after 13 days (100=total damage to plant; 0=no damage to plant); for pest or weed control at 62.5 g/ha: 62.5 g ai/ha; for pest or weed control at 62.5 g/ha / pest or weed control at 250 g/ha: evaluated after 13 days, 100=total damage to plant, 0=no damage to plant; for pest or weed control at 250 g/ha: 250 g ai/ha
In short: as §1

[4] = tested on: redroot pigweed (Amaranthus retroflexus); test: Test G Post-Emergence Protocol; details: Amaranthus retroflexus, post-emergence, 312 h, read-out: Pigweed, Redroot damage rating; for pest or weed control at 15.625 g/ha: 15.625 g ai/ha, evaluated after 13 days (100=total damage to plant; 0=no damage to plant); for pest or weed control at 62.5 g/ha: 62.5 g ai/ha; for pest or weed control at 62.5 g/ha / pest or weed control at 250 g/ha: evaluated after 13 days, 100=total damage to plant, 0=no damage to plant; for pest or weed control at 250 g/ha: 250 g ai/ha
In short: as §1

corn (Zea mays) [5] = test: Test G Post-Emergence Protocol; details: Zea mays, post-emergence, 312 h, read-out: Corn damage rating; for plant injury at 15.625 g/ha: 15.625 g ai/ha, evaluated after 13 days (100=total damage to plant; 0=no damage to plant); for plant injury at 62.5 g/ha: 62.5 g ai/ha; for plant injury at 62.5 g/ha / plant injury at 250 g/ha: evaluated after 13 days, 100=total damage to plant, 0=no damage to plant; for plant injury at 250 g/ha: 250 g ai/ha
In short: as §1

[6] = tested on: velvetleaf (Abutilon theophrasti); test: Test G Post-Emergence Protocol; details: Abutilon theophrasti, post-emergence, 312 h, read-out: Velvetleaf damage rating; for pest or weed control at 15.625 g/ha: 15.625 g ai/ha, evaluated after 13 days (100=total damage to plant; 0=no damage to plant); for pest or weed control at 62.5 g/ha: 62.5 g ai/ha; for pest or weed control at 62.5 g/ha / pest or weed control at 250 g/ha: evaluated after 13 days, 100=total damage to plant, 0=no damage to plant; for pest or weed control at 250 g/ha: 250 g ai/ha
In short: as §1

[7] = tested on: barnyardgrass (Echinochloa crus-galli); test: Test G Pre-Emergence Protocol; details: Echinochloa crus-galli, pre-emergence, 312 h, evaluated after 13 days; for pest or weed control at 15.625 g/ha: 15.625 g ai/ha; for pest or weed control at 15.625 g/ha / pest or weed control at 250 g/ha: read-out: Barnyardgrass damage rating (100=total damage to plant; 0=no damage to plant); for pest or weed control at 62.5 g/ha: 62.5 g ai/ha, 100=total damage to plant, 0=no damage to plant, read-out: Barnyardgrass damage rating; for pest or weed control at 250 g/ha: 250 g ai/ha
In short: (§2)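 Herbicidal effect was rated 13 days post-application on a scale where 100 equals total damage. Spraying took place the day after sowing, using 15.625, 62.5 or 250 g/ha of compound in a 50:50 acetone/water solution with 0.5% Tween 20.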

[8] = tested on: giant foxtail (Setaria faberi); test: Test G Pre-Emergence Protocol; details: Setaria faberi, pre-emergence, 312 h, evaluated after 13 days; for pest or weed control at 15.625 g/ha: 15.625 g ai/ha; for pest or weed control at 15.625 g/ha / pest or weed control at 250 g/ha: read-out: Foxtail, Giant damage rating (100=total damage to plant; 0=no damage to plant); for pest or weed control at 62.5 g/ha: 62.5 g ai/ha, 100=total damage to plant, 0=no damage to plant, read-out: Foxtail, Giant damage rating; for pest or weed control at 250 g/ha: 250 g ai/ha
In short: as §2

[9] = tested on: ivy-leaved morning glory (Ipomoea hederacea); test: Test G Pre-Emergence Protocol; details: Ipomoea, pre-emergence, 312 h, evaluated after 13 days; for pest or weed control at 15.625 g/ha: 15.625 g ai/ha; for pest or weed control at 15.625 g/ha / pest or weed control at 250 g/ha: read-out: Morningglory, Ivy-leaved damage rating (100=total damage to plant; 0=no damage to plant); for pest or weed control at 62.5 g/ha: 62.5 g ai/ha, 100=total damage to plant, 0=no damage to plant, read-out: Morningglory, Ivy-leaved damage rating; for pest or weed control at 250 g/ha: 250 g ai/ha
In short: as §2

[10] = tested on: redroot pigweed (Amaranthus retroflexus); test: Test G Pre-Emergence Protocol; details: Amaranthus retroflexus, pre-emergence, 312 h, evaluated after 13 days; for pest or weed control at 15.625 g/ha: 15.625 g ai/ha; for pest or weed control at 15.625 g/ha / pest or weed control at 250 g/ha: read-out: Pigweed, Redroot damage rating (100=total damage to plant; 0=no damage to plant); for pest or weed control at 62.5 g/ha: 62.5 g ai/ha, 100=total damage to plant, 0=no damage to plant, read-out: Pigweed, Redroot damage rating; for pest or weed control at 250 g/ha: 250 g ai/ha
In short: as §2

corn (Zea mays) [11] = test: Test G Pre-Emergence Protocol; details: Zea mays, pre-emergence, 312 h, evaluated after 13 days; for plant injury at 15.625 g/ha: 15.625 g ai/ha; for plant injury at 15.625 g/ha / plant injury at 250 g/ha: read-out: Corn damage rating (100=total damage to plant; 0=no damage to plant); for plant injury at 62.5 g/ha: 62.5 g ai/ha, 100=total damage to plant, 0=no damage to plant, read-out: Corn damage rating; for plant injury at 250 g/ha: 250 g ai/ha
In short: as §2

[12] = tested on: velvetleaf (Abutilon theophrasti); test: Test G Pre-Emergence Protocol; details: Abutilon theophrasti, pre-emergence, 312 h, evaluated after 13 days; for pest or weed control at 15.625 g/ha: 15.625 g ai/ha; for pest or weed control at 15.625 g/ha / pest or weed control at 250 g/ha: read-out: Velvetleaf damage rating (100=total damage to plant; 0=no damage to plant); for pest or weed control at 62.5 g/ha: 62.5 g ai/ha, 100=total damage to plant, 0=no damage to plant, read-out: Velvetleaf damage rating; for pest or weed control at 250 g/ha: 250 g ai/ha
In short: as §2

Row | Compound | pest or weed control at 15.625 g/ha [1] [%] | pest or weed control at 62.5 g/ha [1] [%] | pest or weed control at 250 g/ha [1] [%] | pest or weed control at 15.625 g/ha [2] [%] | pest or weed control at 62.5 g/ha [2] [%] | pest or weed control at 250 g/ha [2] [%] | pest or weed control at 15.625 g/ha [3] [%] | pest or weed control at 62.5 g/ha [3] [%] | pest or weed control at 250 g/ha [3] [%] | pest or weed control at 15.625 g/ha [4] [%] | pest or weed control at 62.5 g/ha [4] [%] | pest or weed control at 250 g/ha [4] [%] | plant injury at 15.625 g/ha (corn (Zea mays) [5]) [%] | plant injury at 62.5 g/ha (corn (Zea mays) [5]) [%] | plant injury at 250 g/ha (corn (Zea mays) [5]) [%] | pest or weed control at 15.625 g/ha [6] [%] | pest or weed control at 62.5 g/ha [6] [%] | pest or weed control at 250 g/ha [6] [%] | pest or weed control at 15.625 g/ha [7] [%] | pest or weed control at 62.5 g/ha [7] [%] | other results
1 | CN1C[C@@H](c2ccc(C(F)(F)F)cc2)[C@H](C(=O)Nc2ccnc(Cl)c2F)C1=O (racemic) [Compound 1656] | 10 | 10 | 30 | 20 | 30 | 80 | 0 | 0 | 0 | 0 | 20 | 30 | 0 | 0 | 0 | 0 | 0 | 20 | 0 | 0 | pest or weed control at 250 g/ha [7]: 20%; pest or weed control at 15.625 g/ha [8]: 0%; pest or weed control at 62.5 g/ha [8]: 0%; pest or weed control at 250 g/ha [8]: 80%; pest or weed control at 15.625 g/ha [9]: 0%; pest or weed control at 62.5 g/ha [9]: 20%; pest or weed control at 250 g/ha [9]: 0%; pest or weed control at 15.625 g/ha [10]: 0%; pest or weed control at 62.5 g/ha [10]: 0%; pest or weed control at 250 g/ha [10]: 0%; plant injury at 15.625 g/ha (corn (Zea mays) [11]): 0%; plant injury at 62.5 g/ha (corn (Zea mays) [11]): 0%; plant injury at 250 g/ha (corn (Zea mays) [11]): 0%; pest or weed control at 15.625 g/ha [12]: 0%; pest or weed control at 62.5 g/ha [12]: 0%; pest or weed control at 250 g/ha [12]: 0%
2 | CN1C[C@@H](c2ccc(C(F)(F)F)cc2)[C@H](C(=O)Nc2cncc(F)n2)C1=O (racemic) [Compound 1657] | 0 | 10 | 40 | 0 | 40 | 70 | 0 | 10 | 30 | 0 | 40 | 60 | 0 | 10 | 20 | 0 | 20 | 20 | 0 | 10 | pest or weed control at 250 g/ha [7]: 20%; pest or weed control at 15.625 g/ha [8]: 0%; pest or weed control at 62.5 g/ha [8]: 60%; pest or weed control at 250 g/ha [8]: 80%; pest or weed control at 15.625 g/ha [9]: 0%; pest or weed control at 62.5 g/ha [9]: 0%; pest or weed control at 250 g/ha [9]: 0%; pest or weed control at 15.625 g/ha [10]: 0%; pest or weed control at 62.5 g/ha [10]: 20%; pest or weed control at 250 g/ha [10]: 50%; plant injury at 15.625 g/ha (corn (Zea mays) [11]): 0%; plant injury at 62.5 g/ha (corn (Zea mays) [11]): 0%; plant injury at 250 g/ha (corn (Zea mays) [11]): 0%; pest or weed control at 15.625 g/ha [12]: 0%; pest or weed control at 62.5 g/ha [12]: 0%; pest or weed control at 250 g/ha [12]: 0%
3 | CN1C[C@@H](c2ccc(C(F)(F)F)cc2)[C@H](C(=O)Nc2n[nH]cc2Cl)C1=O (racemic) [Compound 1658] | 0 | 0 | 20 | 0 | 0 | 20 | 0 | 0 | 20 | 0 | 10 | 40 | 0 | 0 | 10 | 0 | 0 | 10 | 0 | 0 | pest or weed control at 250 g/ha [7]: 0%; pest or weed control at 15.625 g/ha [8]: 0%; pest or weed control at 62.5 g/ha [8]: 0%; pest or weed control at 250 g/ha [8]: 0%; pest or weed control at 15.625 g/ha [9]: 0%; pest or weed control at 62.5 g/ha [9]: 0%; pest or weed control at 250 g/ha [9]: 0%; pest or weed control at 15.625 g/ha [10]: 0%; pest or weed control at 62.5 g/ha [10]: 0%; pest or weed control at 250 g/ha [10]: 0%; plant injury at 15.625 g/ha (corn (Zea mays) [11]): 0%; plant injury at 62.5 g/ha (corn (Zea mays) [11]): 0%; plant injury at 250 g/ha (corn (Zea mays) [11]): 0%; pest or weed control at 15.625 g/ha [12]: 0%; pest or weed control at 62.5 g/ha [12]: 0%; pest or weed control at 250 g/ha [12]: 0%
